Results reported in ChEMBL document CHEMBL1201862, “PubChem BioAssay data set” (2004).
Active and inactive are the calls of the source.

Columns and labels:
[1] = biological target: G-protein coupled receptor 55 (Homo sapiens, UniProt Q9Y2T6); test: GPR55 agonists via beta-arrestin recruitment, primary screen, imaging, U2OS cells, beta-arrestin-GFP redistribution (AID 1961); assay type: functional
[2] = biological target: T1, Replicative DNA helicase DnaB (Mycobacterium tuberculosis, UniProt P9WMR3); test: DnaB intein splicing inhibitors, dose response, biochemical, cell-free fluorescence (AID 449749); assay type: functional
T1 sequence (P9WMR3 whole entry): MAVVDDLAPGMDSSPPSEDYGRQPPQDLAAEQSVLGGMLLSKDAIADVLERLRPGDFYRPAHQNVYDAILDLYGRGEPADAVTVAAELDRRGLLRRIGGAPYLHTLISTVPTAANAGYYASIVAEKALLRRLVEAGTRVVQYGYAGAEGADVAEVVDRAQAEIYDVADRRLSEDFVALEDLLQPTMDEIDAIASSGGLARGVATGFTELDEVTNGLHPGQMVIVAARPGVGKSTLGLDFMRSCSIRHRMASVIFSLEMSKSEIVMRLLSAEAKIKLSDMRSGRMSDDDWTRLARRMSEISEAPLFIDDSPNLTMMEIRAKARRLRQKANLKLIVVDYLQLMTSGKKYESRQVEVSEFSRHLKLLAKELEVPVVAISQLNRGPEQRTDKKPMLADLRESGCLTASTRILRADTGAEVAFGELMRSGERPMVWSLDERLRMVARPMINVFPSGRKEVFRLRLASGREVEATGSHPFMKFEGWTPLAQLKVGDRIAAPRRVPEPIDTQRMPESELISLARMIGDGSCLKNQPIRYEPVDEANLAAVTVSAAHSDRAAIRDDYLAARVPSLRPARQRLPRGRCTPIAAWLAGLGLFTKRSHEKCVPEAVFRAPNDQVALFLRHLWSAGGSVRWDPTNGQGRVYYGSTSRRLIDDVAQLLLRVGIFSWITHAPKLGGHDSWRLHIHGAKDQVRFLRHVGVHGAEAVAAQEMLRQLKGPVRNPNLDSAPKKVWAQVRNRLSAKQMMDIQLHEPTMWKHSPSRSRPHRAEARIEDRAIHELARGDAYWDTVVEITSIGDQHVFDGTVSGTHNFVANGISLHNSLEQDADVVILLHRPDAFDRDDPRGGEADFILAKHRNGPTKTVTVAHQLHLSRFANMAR

[3] = biological target: T2, Protein RecA (Mycobacterium tuberculosis, UniProt P9WHJ3); test: Fluorescence Cell-Free Homogeneous Dose Retest to Identify Inhibitors of RecA-Intein Splicing Activity. [Related pubchem assays (depositor defined):AID2097, AID2223, AID489010, AID492950]; assay type: functional
T2 sequence (P9WHJ3 whole entry): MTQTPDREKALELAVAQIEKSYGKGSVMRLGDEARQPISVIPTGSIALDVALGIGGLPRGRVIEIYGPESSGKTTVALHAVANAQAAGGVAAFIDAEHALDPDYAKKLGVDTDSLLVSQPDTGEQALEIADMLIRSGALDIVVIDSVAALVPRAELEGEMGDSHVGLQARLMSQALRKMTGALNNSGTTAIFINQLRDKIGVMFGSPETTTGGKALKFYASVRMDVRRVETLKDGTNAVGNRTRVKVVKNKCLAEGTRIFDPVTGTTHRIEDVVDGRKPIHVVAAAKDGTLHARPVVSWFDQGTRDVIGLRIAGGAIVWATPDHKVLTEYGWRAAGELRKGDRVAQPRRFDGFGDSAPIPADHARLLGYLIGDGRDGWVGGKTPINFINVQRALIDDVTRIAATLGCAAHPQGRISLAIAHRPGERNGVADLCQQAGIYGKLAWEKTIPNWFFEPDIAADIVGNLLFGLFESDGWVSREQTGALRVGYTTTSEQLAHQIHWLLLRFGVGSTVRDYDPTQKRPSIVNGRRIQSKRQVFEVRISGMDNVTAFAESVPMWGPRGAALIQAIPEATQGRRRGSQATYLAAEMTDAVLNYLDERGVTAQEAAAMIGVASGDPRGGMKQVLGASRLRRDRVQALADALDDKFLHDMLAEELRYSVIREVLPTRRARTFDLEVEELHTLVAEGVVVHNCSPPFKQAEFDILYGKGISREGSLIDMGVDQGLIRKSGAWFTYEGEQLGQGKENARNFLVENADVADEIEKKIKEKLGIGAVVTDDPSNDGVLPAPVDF

[4] = test system: Salmon testes DNA; test: DNA intercalators displacing acridine orange, dose response, artefact control for KSHV LANA DNA-binding inhibitor project, biochemical, fluorescence polarization, cherry-picked samples, set 2 (AID 504727); parameters: species or system Salmonidae
[5] = biological target: T3, ORF 73 (Human herpesvirus 8, UniProt O40947); test: inhibitors of C-LANA binding to LBS DNA, dose response, biochemical, fluorescence polarization, cherry-picked samples (AID 504725); parameters: species or system Human gammaherpesvirus 8;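 note: fluorescence polarization of a labeled DNA duplex reporting LANA DNA binding; potency is for inhibitors that block LANA binding to the DNA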
T3 sequence (O40947 whole entry): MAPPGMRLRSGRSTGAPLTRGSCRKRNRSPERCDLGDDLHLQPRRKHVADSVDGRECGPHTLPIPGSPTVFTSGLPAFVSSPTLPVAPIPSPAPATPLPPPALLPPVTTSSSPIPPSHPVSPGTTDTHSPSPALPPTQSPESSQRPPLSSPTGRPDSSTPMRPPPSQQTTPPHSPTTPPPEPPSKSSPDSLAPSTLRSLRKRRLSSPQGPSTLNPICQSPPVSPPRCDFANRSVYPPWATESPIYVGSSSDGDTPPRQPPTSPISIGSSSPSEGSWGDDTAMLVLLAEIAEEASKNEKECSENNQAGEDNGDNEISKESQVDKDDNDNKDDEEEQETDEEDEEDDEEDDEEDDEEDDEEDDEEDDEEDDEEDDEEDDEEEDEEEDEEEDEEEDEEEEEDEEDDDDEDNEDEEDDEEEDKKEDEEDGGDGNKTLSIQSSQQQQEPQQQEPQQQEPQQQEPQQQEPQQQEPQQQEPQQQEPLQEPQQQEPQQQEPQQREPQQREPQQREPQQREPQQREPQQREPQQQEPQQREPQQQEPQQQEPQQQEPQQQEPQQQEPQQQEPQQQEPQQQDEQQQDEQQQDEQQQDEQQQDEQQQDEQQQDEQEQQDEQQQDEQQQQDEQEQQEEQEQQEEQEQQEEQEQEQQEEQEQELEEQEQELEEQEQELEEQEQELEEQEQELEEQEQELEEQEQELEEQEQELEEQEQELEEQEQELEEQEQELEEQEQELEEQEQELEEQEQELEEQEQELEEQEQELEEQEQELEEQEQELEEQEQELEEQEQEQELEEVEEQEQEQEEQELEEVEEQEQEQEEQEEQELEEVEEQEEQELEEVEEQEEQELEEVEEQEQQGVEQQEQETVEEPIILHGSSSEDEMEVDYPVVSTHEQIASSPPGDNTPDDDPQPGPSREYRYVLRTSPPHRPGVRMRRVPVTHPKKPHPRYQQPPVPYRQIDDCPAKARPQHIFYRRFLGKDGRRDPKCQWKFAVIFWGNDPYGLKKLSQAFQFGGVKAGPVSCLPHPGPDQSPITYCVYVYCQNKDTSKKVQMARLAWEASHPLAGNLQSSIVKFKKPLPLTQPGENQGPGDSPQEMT

[6] = biological target: T4, Endoribonuclease toxin MazF (Escherichia coli K-12, UniProt P0AE70); test: MazF toxin RNase activators, dose response, biochemical, fluorescence, single-stranded RNA substrate, uHTS hits (AID 588481); assay type: functional
T4 sequence (P0AE70 whole entry): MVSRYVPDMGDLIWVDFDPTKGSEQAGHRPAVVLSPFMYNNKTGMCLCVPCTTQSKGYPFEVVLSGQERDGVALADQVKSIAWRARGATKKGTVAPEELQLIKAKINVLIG

[7] = biological target: UDP-galactopyranose mutase (Mycobacterium tuberculosis, UniProt P9WIQ1); test: Inhibitors of Mycobacterium tuberculosis UDP-galactopyranose mutase (UGM) enzyme Measured in Biochemical System Using Plate Reader - 2105-02_Inhibitor_Dose_CherryPick_Activity. [Related pubchem assays (depositor defined):AID504439]
UDP-galactopyranose mutase, sequence (P9WIQ1 whole entry): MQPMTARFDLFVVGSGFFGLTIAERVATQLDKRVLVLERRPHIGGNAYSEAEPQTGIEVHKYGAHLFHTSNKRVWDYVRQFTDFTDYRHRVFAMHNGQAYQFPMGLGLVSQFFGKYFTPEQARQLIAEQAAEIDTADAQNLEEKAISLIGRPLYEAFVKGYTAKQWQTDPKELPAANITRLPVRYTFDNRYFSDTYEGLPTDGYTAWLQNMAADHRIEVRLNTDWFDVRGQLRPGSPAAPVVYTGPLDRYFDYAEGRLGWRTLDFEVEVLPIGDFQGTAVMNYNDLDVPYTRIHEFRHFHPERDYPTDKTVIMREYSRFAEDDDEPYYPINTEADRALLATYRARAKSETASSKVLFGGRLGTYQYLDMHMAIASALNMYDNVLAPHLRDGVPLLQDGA

[8] = biological target: Keap1/Nrf2 (Homo sapiens, UniProt Q14145); test: Keap1-Nrf2 protein-protein interaction inhibitors, dose response, biochemical, fluorescence polarization, cherry-picked samples (AID 588683)
Keap1/Nrf2, sequence (Q16236 whole entry): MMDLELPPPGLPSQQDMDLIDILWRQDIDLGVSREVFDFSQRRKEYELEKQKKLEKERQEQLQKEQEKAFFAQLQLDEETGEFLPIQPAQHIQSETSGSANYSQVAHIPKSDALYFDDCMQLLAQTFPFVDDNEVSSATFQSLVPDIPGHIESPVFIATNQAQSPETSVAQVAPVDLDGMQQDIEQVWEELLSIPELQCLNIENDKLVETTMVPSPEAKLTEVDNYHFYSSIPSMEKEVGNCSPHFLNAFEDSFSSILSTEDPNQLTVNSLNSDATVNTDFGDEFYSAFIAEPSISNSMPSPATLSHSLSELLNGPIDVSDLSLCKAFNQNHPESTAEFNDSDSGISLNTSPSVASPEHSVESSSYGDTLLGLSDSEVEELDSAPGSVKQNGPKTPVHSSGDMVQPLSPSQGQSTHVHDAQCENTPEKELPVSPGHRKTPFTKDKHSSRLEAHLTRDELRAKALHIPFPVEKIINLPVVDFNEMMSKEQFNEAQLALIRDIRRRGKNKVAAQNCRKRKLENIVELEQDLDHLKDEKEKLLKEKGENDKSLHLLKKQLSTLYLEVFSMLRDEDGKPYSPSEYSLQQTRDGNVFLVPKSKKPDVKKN
Keap1/Nrf2, sequence (Q14145 whole entry): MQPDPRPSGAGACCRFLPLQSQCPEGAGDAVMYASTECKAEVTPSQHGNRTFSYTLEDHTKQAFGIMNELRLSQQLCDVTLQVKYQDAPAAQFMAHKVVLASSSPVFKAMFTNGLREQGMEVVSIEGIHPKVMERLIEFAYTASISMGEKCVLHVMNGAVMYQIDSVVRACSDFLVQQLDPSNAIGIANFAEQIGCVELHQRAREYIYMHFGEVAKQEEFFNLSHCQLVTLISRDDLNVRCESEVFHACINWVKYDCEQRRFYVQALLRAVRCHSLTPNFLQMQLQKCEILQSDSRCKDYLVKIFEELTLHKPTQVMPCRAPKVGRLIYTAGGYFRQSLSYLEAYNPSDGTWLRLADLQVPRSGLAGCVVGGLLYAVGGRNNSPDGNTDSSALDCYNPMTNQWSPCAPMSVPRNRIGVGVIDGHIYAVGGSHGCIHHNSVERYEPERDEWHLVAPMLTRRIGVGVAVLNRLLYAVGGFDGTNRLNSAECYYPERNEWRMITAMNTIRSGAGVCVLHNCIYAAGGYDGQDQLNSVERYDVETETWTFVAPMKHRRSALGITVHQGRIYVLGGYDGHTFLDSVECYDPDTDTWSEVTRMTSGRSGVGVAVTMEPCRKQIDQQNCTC

[9] = biological target: T4, Endoribonuclease toxin MazF; test: fluorescent RNA oligo signal without MazF, dose response, counter-screen for MazEF activator project, biochemical, fluorescence, single-stranded RNase substrate (AID 588502); assay type: functional
[10] = biological target: T5, Phosphomannomutase 2 (Homo sapiens, UniProt O15305); test: Counter screen SAR assay for PMM2 inhibitors via a fluorescence intensity assay. [Related pubchem assays (depositor defined):AID1545, AID1574]
T5 sequence (O15305 whole entry): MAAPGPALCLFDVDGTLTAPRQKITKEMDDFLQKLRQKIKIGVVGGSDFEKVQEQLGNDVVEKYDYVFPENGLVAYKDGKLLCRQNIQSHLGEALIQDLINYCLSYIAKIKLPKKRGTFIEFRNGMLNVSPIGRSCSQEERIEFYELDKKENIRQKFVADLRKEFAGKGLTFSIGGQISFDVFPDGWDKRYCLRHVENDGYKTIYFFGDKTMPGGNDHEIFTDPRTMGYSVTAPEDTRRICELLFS

[11] = biological target: Phosphoethanolamine/phosphocholine phosphatase (Homo sapiens, UniProt Q8TCT1); test: SAR assay for compounds that inhibit PHOSPHO1. [Related pubchem assays (depositor defined):AID1545, AID1565, AID1574]
Phosphoethanolamine/phosphocholine phosphatase, sequence (Q8TCT1 whole entry): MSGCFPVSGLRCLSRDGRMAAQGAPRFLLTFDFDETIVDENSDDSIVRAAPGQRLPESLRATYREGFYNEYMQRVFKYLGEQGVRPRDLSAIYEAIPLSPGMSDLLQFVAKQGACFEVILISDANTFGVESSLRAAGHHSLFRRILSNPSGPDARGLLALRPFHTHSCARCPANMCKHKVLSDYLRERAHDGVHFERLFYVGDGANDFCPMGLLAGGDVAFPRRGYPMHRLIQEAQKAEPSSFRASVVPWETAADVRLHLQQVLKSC

[12] = biological target: T6, Short transient receptor potential channel 4 (Mus musculus, UniProt Q9QUQ5); test: TRPC4 positive allosteric modulators, dose response, cell-based, HEK293 TRPC4/mu-opioid, Fluo-4 calcium, EC20 DAMGO (AID 434941); assay type: functional
T6 sequence (Q9QUQ5 whole entry): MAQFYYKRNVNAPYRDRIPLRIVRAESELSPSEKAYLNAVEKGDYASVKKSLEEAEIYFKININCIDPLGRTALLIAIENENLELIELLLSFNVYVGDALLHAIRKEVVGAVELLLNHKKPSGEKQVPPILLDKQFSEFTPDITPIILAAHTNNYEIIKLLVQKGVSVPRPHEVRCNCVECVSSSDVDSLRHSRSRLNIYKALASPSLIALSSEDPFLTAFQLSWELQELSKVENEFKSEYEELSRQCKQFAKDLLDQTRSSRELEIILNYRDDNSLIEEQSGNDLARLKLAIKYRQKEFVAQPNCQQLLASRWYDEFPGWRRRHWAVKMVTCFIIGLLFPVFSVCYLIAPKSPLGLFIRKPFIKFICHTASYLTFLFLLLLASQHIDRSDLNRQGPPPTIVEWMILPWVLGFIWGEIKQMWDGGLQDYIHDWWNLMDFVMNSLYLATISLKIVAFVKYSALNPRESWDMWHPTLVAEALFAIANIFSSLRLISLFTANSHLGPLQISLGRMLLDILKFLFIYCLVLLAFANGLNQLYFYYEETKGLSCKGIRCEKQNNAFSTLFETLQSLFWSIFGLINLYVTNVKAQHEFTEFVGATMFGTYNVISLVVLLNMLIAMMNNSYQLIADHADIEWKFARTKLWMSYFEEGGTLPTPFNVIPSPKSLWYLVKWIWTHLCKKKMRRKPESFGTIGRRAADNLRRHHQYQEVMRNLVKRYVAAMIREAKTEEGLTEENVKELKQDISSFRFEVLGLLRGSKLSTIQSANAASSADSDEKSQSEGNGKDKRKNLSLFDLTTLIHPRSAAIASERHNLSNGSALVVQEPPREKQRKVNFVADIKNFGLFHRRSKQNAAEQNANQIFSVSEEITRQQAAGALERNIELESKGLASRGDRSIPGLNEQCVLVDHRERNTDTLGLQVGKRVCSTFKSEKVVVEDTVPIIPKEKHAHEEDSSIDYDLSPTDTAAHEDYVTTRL

G-protein coupled receptor 55, sequence (Q9Y2T6 whole entry): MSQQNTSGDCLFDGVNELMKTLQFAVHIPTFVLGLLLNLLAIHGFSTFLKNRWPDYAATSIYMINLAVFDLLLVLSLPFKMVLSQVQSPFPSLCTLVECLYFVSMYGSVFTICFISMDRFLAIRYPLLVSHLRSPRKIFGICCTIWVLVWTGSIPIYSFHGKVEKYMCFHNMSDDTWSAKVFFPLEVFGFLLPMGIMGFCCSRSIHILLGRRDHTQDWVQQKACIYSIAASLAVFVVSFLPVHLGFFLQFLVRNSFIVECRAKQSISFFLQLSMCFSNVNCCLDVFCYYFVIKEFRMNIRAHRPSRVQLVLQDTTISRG

O=C(c1ccncc1)N(c1ccc2oc3c(c2c1)CCCC3)S(=O)(=O)c1ccc(F)cc1
EC50 [1]: > 32 µM (inactive)
AC50 [2]: 2.09 µM (active)
EC50 [3]: 6.22 µM (active)

Cc1cc2nc3c(O)nc(S)nc3nc2cc1NC(=O)C(F)(F)F
AC50 [4]: 86.4 µM (active)
AC50 [5]: 40.6 µM (active)
EC50 [6]: > 99 µM (inactive)
AC50 [7]: 19.6 µM (active)
AC50 [8]: > 52 µM (inactive)
EC50 [9]: > 99 µM (inactive)

CN(C)c1cccc(-n2sc3ccccc3c2=O)c1
IC50 [10]: 85.2 µM (active)
IC50 [11]: 52.9 µM (inactive)

O=C(c1cccc([N+](=O)[O-])c1)N1CCCC(C(=O)N2CCCCCC2)C1 (configuration not stated)
EC50 [12]: 0.33 µM (active)
